We go through 20 compounds from BindingDB's records for doi:10.1074/jbc.M113.521955 (Albert Einstein College of Medicine, 2013).

Molecules are shown by their SMILES.

The target in assay [1] is T1, Uridine 5'-monophosphate synthase (Homo sapiens, UniProt P11172).
T1 sequence (P11172 whole entry): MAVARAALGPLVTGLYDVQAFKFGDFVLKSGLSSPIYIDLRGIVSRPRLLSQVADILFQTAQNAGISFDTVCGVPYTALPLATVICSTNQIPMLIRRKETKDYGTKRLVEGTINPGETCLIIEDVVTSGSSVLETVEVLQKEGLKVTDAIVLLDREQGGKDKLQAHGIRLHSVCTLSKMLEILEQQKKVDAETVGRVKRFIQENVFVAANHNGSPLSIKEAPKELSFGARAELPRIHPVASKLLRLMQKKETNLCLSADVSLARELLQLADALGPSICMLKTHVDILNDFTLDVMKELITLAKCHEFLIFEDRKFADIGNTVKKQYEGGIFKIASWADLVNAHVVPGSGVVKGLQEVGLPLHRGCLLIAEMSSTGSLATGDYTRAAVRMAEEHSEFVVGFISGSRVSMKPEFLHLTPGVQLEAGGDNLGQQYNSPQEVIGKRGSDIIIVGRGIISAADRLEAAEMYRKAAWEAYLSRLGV
Description: Inhibition Assay. To be noted: pH 8; 25 °C. The protocol: (§1) In all cases, the inhibitor concentration was at least 10 times the enzyme concentration. Reaction rates were monitored through the absorbance increase at 295 nm to give an extinction coefficient of 3.67 mM-1 cm-1 [Abdo et al., Org. Lett., 12:2982-2985].

The target in assay [2] is T2, Orotate phosphoribosyltransferase (Plasmodium falciparum (isolate 3D7), UniProt Q8I3Y0).
T2 sequence (Q8I3Y0 whole entry): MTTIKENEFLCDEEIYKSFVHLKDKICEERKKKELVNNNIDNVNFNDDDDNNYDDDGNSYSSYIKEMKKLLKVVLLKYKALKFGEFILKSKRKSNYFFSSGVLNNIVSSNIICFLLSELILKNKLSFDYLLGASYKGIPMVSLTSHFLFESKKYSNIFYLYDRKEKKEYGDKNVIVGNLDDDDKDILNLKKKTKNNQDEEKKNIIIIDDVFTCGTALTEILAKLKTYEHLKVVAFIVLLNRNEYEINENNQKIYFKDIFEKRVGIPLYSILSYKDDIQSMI
Kind of assay: Inhibition Assay. The conditions noted are these: pH 8; 25 °C. On the procedure: as §1

With `O=C(O)c1[nH]c(=O)[nH]c(=O)c1CN1CCCC1` [OPRT inhibitor, 13], the Ki (as a rule, the equilibrium dissociation constant of an inhibitor or competing ligand from its target) in assay [1] amounted to 0.25 µM; in assay [2], 0.47 µM.
Taken in the same sequence, the figures for `O=C(O)c1ccncc1[C@@H]1N[C@H](COP(=O)(O)O)C(O)C1O` (stereo not given in full) [OPRT inhibitor, 12] were 4.3 µM and 15.5 µM.
For the compound `O=[N+]([O-])c1ccc(O[C@@H]2O[C@H](COP(=O)(O)O)C(O)C2O)cc1` (stereo not given in full) [OPRT inhibitor, 2], the inhibition constant (Ki) came out at 0.041 µM in assay [1] and 0.04 µM in assay [2].
On to `O=C(O)c1[nH]c(=O)[nH]c(=O)c1CN1CC(O)[C@@H](COP(=O)(O)O)C1` (stereo not given in full) [OPRT inhibitor, 15], for which the Ki in assay [1] was 0.24 µM; in assay [2], 0.5 µM.
In the same order, the values of `O=C(O)c1[nH]c(=O)[nH]c(=O)c1CN1CC(O)[C@@H](CO)C1` (stereo not given in full) [OPRT inhibitor, 14] are 0.083 µM and 0.22 µM.
In the same order, the values of `O=C(O)c1cc(=O)[nH]c(=O)n1CCN1CC(O)C(O)[C@H]1CO` (stereo not given in full) [OPRT inhibitor, 10] are 0.29 µM and 0.69 µM.
In the same order, the values of `O=c1[nH]c(=O)n(CCN2CC(O)C(O)[C@H]2CO)cc1Br` (stereo not given in full) [OPRT inhibitor, 9] are 0.08 µM and 0.27 µM.
As for `O=c1[nH]c(=O)n(C[C@@H]2N[C@H](CO)C(O)C2O)cc1Br` (stereo not given in full) [OPRT inhibitor, 3], the inhibition constant (Ki) in assay [1] came to 0.53 µM; in assay [2], 0.35 µM.
Taken in the same sequence, the figures for `O=C1c2cc(=O)[nH]c(=O)n2C[C@H]2C(O)C(O)[C@@H](COP(=O)(O)O)N12` (stereo not given in full) [OPRT inhibitor, 8] were 0.09 µM and 0.17 µM.
Taken in the same sequence, the figures for `O=c1[nH]c(=O)n(CCN2CC(O)[C@@H](CO)C2)cc1Br` (stereo not given in full) [OPRT inhibitor, 11] were 0.52 µM and 1.3 µM.
In the same order, the values of `O=[N+]([O-])c1ccc(O[C@@H]2O[C@H](CO)C(O)C2O)cc1` (stereo not given in full) [OPRT inhibitor, 1] are 0.12 µM and 0.19 µM.
`O=[N+]([O-])c1ccc(CNC(CO)CO)cc1` [OPRT inhibitor, 19]: the figures for the Ki in assay [1] and in assay [2] were 0.15 µM and 0.5 µM, respectively.
Regarding `O=c1[nH]c(=O)n(C[C@@H]2N[C@H](COP(=O)(O)O)C(O)C2O)cc1Br` (stereo not given in full) [OPRT inhibitor, 4], the figures for the Ki in assay [1] and in assay [2] were 0.2 µM and 0.37 µM, respectively.
In the case of `O=C1c2cc(=O)[nH]c(=O)n2C[C@H]2C(O)C(O)[C@@H](CO)N12` (stereo not given in full) [OPRT inhibitor, 7], the Ki turned out to be 0.11 µM in assay [1] and 0.27 µM in assay [2].
In the same order, the values of `N#Cc1cc(=O)[nH]c(=O)n1C[C@@H]1N[C@H](CO)C(O)C1O` (stereo not given in full) [OPRT inhibitor, 5] are 0.36 µM and 0.3 µM.
In the case of `O=[N+]([O-])c1ccc([C@@H]2N[C@H](CO)C(O)C2O)cc1` (stereo not given in full) [OPRT inhibitor, 16], the Ki turned out to be 0.23 µM in assay [1] and 0.48 µM in assay [2].
In the same order, the values of `N#Cc1cc(=O)[nH]c(=O)n1C[C@@H]1N[C@H](COP(=O)(O)O)C(O)C1O` (stereo not given in full) [OPRT inhibitor, 6] are 0.14 µM and 0.35 µM.
Taken in the same sequence, the figures for `O=[N+]([O-])c1ccc(CN2CC(O)[C@@H](CO)C2)cc1` (stereo not given in full) [OPRT inhibitor, 17] were 0.2 µM and 0.75 µM.
Regarding `O=[N+]([O-])c1ccc(CCNC(CO)CO)cc1` [OPRT inhibitor, 20], the Ki in assay [1] was 0.12 µM; in assay [2], 0.51 µM.
Taken in the same sequence, the figures for `O=[N+]([O-])c1ccc(CCN2CC(O)[C@@H](CO)C2)cc1` (stereo not given in full) [OPRT inhibitor, 18] were 0.23 µM and 0.57 µM.
